Reference: PubChem BioAssay (NCI)
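Exposure lasted 48 hours, with cells grown in 96-well plates and compounds tested at five concentrations. At the TGI there is no net growth.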

What was measured:
Assay in all cases: NCI tumour cell line growth inhibition, 48 h
SK-MEL-2 melanoma = tested on: SK-MEL-2 melanoma
NCI-H226 lung = tested on: NCI-H226 lung
OVCAR-3 ovarian = tested on: OVCAR-3 ovarian
SF-268 CNS = tested on: SF-268 CNS
MDA-N = tested on: MDA-N
786-0 renal = tested on: 786-0 renal
NCI/ADR-RES ovarian = tested on: NCI/ADR-RES ovarian
HCC-2998 colon = tested on: HCC-2998 colon
IGROV1 ovarian = tested on: IGROV1 ovarian
UACC-257 melanoma = tested on: UACC-257 melanoma
MALME-3M melanoma = tested on: MALME-3M melanoma
MDA-MB-231 breast = tested on: MDA-MB-231 breast
CCRF-CEM leukemia = tested on: CCRF-CEM leukemia
EKVX NSCLC = tested on: EKVX NSCLC
HS 578T breast = tested on: HS 578T breast
SF-295 CNS = tested on: SF-295 CNS
NCI-H23 lung = tested on: NCI-H23 lung
HL-60(TB) leukemia = tested on: HL-60(TB) leukemia
SK-MEL-28 melanoma = tested on: SK-MEL-28 melanoma
RXF 393 renal = tested on: RXF 393 renal
SN12C renal = tested on: SN12C renal
OVCAR-8 ovarian = tested on: OVCAR-8 ovarian
LOX IMVI melanoma = tested on: LOX IMVI melanoma
HT29 colon = tested on: HT29 colon
SR leukemia = tested on: SR leukemia
ACHN renal = tested on: ACHN renal
RPMI-8226 leukemia = tested on: RPMI-8226 leukemia
OVCAR-5 ovarian = tested on: OVCAR-5 ovarian
MDA-MB-435 = tested on: MDA-MB-435
BT-549 breast = tested on: BT-549 breast
TK-10 renal = tested on: TK-10 renal
U251 CNS = tested on: U251 CNS
SK-MEL-5 melanoma = tested on: SK-MEL-5 melanoma
DU-145 prostate = tested on: DU-145 prostate
MCF7 breast = tested on: MCF7 breast
A549 NSCLC = tested on: A549 NSCLC
NCI-H460 lung = tested on: NCI-H460 lung
UO-31 renal = tested on: UO-31 renal
K-562 leukemia = tested on: K-562 leukemia
KM12 colon = tested on: KM12 colon
MOLT-4 leukemia = tested on: MOLT-4 leukemia
NCI-H522 lung = tested on: NCI-H522 lung
SNB-75 CNS = tested on: SNB-75 CNS
UACC-62 melanoma = tested on: UACC-62 melanoma
HCT-15 colon = tested on: HCT-15 colon
SW-620 colon = tested on: SW-620 colon
M14 melanoma = tested on: M14 melanoma
HCT-116 colon = tested on: HCT-116 colon
HOP-62 NSCLC = tested on: HOP-62 NSCLC
COLO 205 colon = tested on: COLO 205 colon
PC-3 prostate = tested on: PC-3 prostate
SNB-19 CNS = tested on: SNB-19 CNS
SF-539 CNS = tested on: SF-539 CNS
CAKI-1 renal = tested on: CAKI-1 renal
OVCAR-4 ovarian = tested on: OVCAR-4 ovarian
T-47D breast = tested on: T-47D breast
SK-OV-3 ovarian = tested on: SK-OV-3 ovarian
HOP-92 NSCLC = tested on: HOP-92 NSCLC
A498 renal = tested on: A498 renal

CN(C(=O)C1(C(=O)C=[N+]=[N-])CC1)c1ccccc1
TGI (SK-MEL-2 melanoma): > 100 µM
TGI (NCI-H226 lung): > 100 µM
TGI (OVCAR-3 ovarian): > 100 µM
TGI (SF-268 CNS): > 100 µM
TGI (MDA-N): > 100 µM
TGI (786-0 renal): > 100 µM
TGI (NCI/ADR-RES ovarian): > 100 µM
TGI (HCC-2998 colon): > 100 µM
TGI (IGROV1 ovarian): > 100 µM
TGI (UACC-257 melanoma): > 100 µM
TGI (MALME-3M melanoma): > 100 µM
TGI (MDA-MB-231 breast): > 100 µM
TGI (CCRF-CEM leukemia): > 100 µM
TGI (EKVX NSCLC): > 100 µM
TGI (HS 578T breast): > 100 µM
TGI (SF-295 CNS): > 100 µM
TGI (NCI-H23 lung): > 100 µM
TGI (HL-60(TB) leukemia): > 100 µM
TGI (SK-MEL-28 melanoma): > 100 µM
TGI (RXF 393 renal): > 100 µM
TGI (SN12C renal): > 100 µM
TGI (OVCAR-8 ovarian): > 100 µM
TGI (LOX IMVI melanoma): > 100 µM
TGI (HT29 colon): > 100 µM
TGI (SR leukemia): > 100 µM
TGI (ACHN renal): > 100 µM
TGI (RPMI-8226 leukemia): > 100 µM
TGI (OVCAR-5 ovarian): > 100 µM
TGI (MDA-MB-435): > 100 µM
TGI (BT-549 breast): > 100 µM
TGI (TK-10 renal): > 100 µM
TGI (U251 CNS): > 100 µM
TGI (SK-MEL-5 melanoma): > 100 µM
TGI (DU-145 prostate): > 100 µM
TGI (MCF7 breast): > 100 µM
TGI (A549 NSCLC): > 100 µM
TGI (NCI-H460 lung): > 100 µM
TGI (UO-31 renal): > 100 µM
TGI (K-562 leukemia): > 100 µM
TGI (KM12 colon): > 100 µM
TGI (MOLT-4 leukemia): > 100 µM
TGI (NCI-H522 lung): > 100 µM
TGI (SNB-75 CNS): > 100 µM
TGI (UACC-62 melanoma): > 100 µM
TGI (HCT-15 colon): > 100 µM
TGI (SW-620 colon): > 100 µM
TGI (M14 melanoma): > 100 µM
TGI (HCT-116 colon): > 100 µM
TGI (HOP-62 NSCLC): > 100 µM
TGI (COLO 205 colon): > 100 µM
TGI (PC-3 prostate): > 100 µM
TGI (SNB-19 CNS): > 100 µM
TGI (SF-539 CNS): > 100 µM

CC(C)(CO)CNc1nc(N)nc(Cl)c1N
TGI (CAKI-1 renal): > 100 µM
TGI (SK-MEL-2 melanoma): > 100 µM
TGI (NCI-H226 lung): > 100 µM
TGI (OVCAR-3 ovarian): > 100 µM
TGI (SF-268 CNS): > 100 µM
TGI (MDA-N): > 100 µM
TGI (786-0 renal): > 100 µM
TGI (NCI/ADR-RES ovarian): > 100 µM
TGI (HCC-2998 colon): > 100 µM
TGI (OVCAR-4 ovarian): > 100 µM
TGI (IGROV1 ovarian): > 100 µM
TGI (UACC-257 melanoma): > 100 µM
TGI (MALME-3M melanoma): > 100 µM
TGI (MDA-MB-231 breast): > 100 µM
TGI (CCRF-CEM leukemia): > 100 µM
TGI (T-47D breast): > 100 µM
TGI (EKVX NSCLC): > 100 µM
TGI (HS 578T breast): > 100 µM
TGI (SF-295 CNS): > 100 µM
TGI (NCI-H23 lung): > 100 µM
TGI (SK-MEL-28 melanoma): > 100 µM
TGI (RXF 393 renal): > 100 µM
TGI (SN12C renal): > 100 µM
TGI (OVCAR-8 ovarian): > 100 µM
TGI (LOX IMVI melanoma): > 100 µM
TGI (HT29 colon): > 100 µM
TGI (ACHN renal): > 100 µM
TGI (OVCAR-5 ovarian): > 100 µM
TGI (MDA-MB-435): > 100 µM
TGI (BT-549 breast): > 100 µM
TGI (TK-10 renal): > 100 µM
TGI (U251 CNS): > 100 µM
TGI (SK-MEL-5 melanoma): > 100 µM
TGI (DU-145 prostate): > 100 µM
TGI (MCF7 breast): > 100 µM
TGI (A549 NSCLC): > 100 µM
TGI (NCI-H460 lung): > 100 µM
TGI (UO-31 renal): > 100 µM
TGI (K-562 leukemia): > 100 µM
TGI (KM12 colon): > 100 µM
TGI (SK-OV-3 ovarian): > 100 µM
TGI (MOLT-4 leukemia): > 100 µM
TGI (NCI-H522 lung): > 100 µM
TGI (SNB-75 CNS): > 100 µM
TGI (UACC-62 melanoma): > 100 µM
TGI (HCT-15 colon): > 100 µM
TGI (SW-620 colon): > 100 µM
TGI (HCT-116 colon): > 100 µM
TGI (HOP-62 NSCLC): > 100 µM
TGI (COLO 205 colon): > 100 µM
TGI (HOP-92 NSCLC): > 100 µM
TGI (PC-3 prostate): > 100 µM
TGI (SNB-19 CNS): > 100 µM
TGI (SF-539 CNS): > 100 µM

CC(=O)NC1C(CO)O[C@@H]2OC(C)(C)O[C@H]12 (some centres not stated)
TGI (CAKI-1 renal): > 100 µM
TGI (SK-MEL-2 melanoma): > 100 µM
TGI (OVCAR-3 ovarian): > 100 µM
TGI (SF-268 CNS): > 100 µM
TGI (MDA-N): > 100 µM
TGI (786-0 renal): > 100 µM
TGI (NCI/ADR-RES ovarian): > 100 µM
TGI (HCC-2998 colon): > 100 µM
TGI (OVCAR-4 ovarian): > 100 µM
TGI (IGROV1 ovarian): > 100 µM
TGI (UACC-257 melanoma): > 100 µM
TGI (MALME-3M melanoma): > 100 µM
TGI (MDA-MB-231 breast): > 100 µM
TGI (CCRF-CEM leukemia): > 100 µM
TGI (EKVX NSCLC): > 100 µM
TGI (HS 578T breast): > 100 µM
TGI (SF-295 CNS): > 100 µM
TGI (NCI-H23 lung): > 100 µM
TGI (HL-60(TB) leukemia): > 100 µM
TGI (SK-MEL-28 melanoma): > 100 µM
TGI (SN12C renal): > 100 µM
TGI (OVCAR-8 ovarian): > 100 µM
TGI (LOX IMVI melanoma): > 100 µM
TGI (HT29 colon): > 100 µM
TGI (ACHN renal): > 100 µM
TGI (RPMI-8226 leukemia): > 100 µM
TGI (OVCAR-5 ovarian): > 100 µM
TGI (MDA-MB-435): > 100 µM
TGI (BT-549 breast): > 100 µM
TGI (TK-10 renal): > 100 µM
TGI (U251 CNS): > 100 µM
TGI (MCF7 breast): > 100 µM
TGI (A549 NSCLC): > 100 µM
TGI (NCI-H460 lung): > 100 µM
TGI (UO-31 renal): > 100 µM
TGI (KM12 colon): > 100 µM
TGI (MOLT-4 leukemia): > 100 µM
TGI (NCI-H522 lung): > 100 µM
TGI (SNB-75 CNS): > 100 µM
TGI (UACC-62 melanoma): > 100 µM
TGI (HCT-15 colon): > 100 µM
TGI (SW-620 colon): > 100 µM
TGI (M14 melanoma): > 100 µM
TGI (A498 renal): > 100 µM
TGI (HCT-116 colon): > 100 µM
TGI (HOP-62 NSCLC): > 100 µM
TGI (HOP-92 NSCLC): > 100 µM
TGI (PC-3 prostate): > 100 µM
TGI (SNB-19 CNS): > 100 µM
TGI (SF-539 CNS): > 100 µM

O=NC1c2cccc3cccc(c23)C1N=O (configuration not stated)
TGI (CAKI-1 renal): 10.8 µM
TGI (OVCAR-3 ovarian): 9.6 µM
TGI (SF-268 CNS): 26.3 µM
TGI (MDA-N): 25.4 µM
TGI (786-0 renal): 30.5 µM
TGI (NCI/ADR-RES ovarian): 7.21 µM
TGI (OVCAR-4 ovarian): 3.56 µM
TGI (IGROV1 ovarian): 3.19 µM
TGI (UACC-257 melanoma): 27.5 µM
TGI (CCRF-CEM leukemia): 4.25 µM
TGI (T-47D breast): > 100 µM
TGI (EKVX NSCLC): 6.76 µM
TGI (HS 578T breast): 75.7 µM
TGI (SF-295 CNS): 24.8 µM
TGI (NCI-H23 lung): 32.3 µM
TGI (HL-60(TB) leukemia): 6.61 µM
TGI (RXF 393 renal): 14.1 µM
TGI (OVCAR-8 ovarian): 6.65 µM
TGI (LOX IMVI melanoma): 5.6 µM
TGI (HT29 colon): 23.7 µM
TGI (ACHN renal): 3.9 µM
TGI (RPMI-8226 leukemia): 39.9 µM
TGI (OVCAR-5 ovarian): 9.11 µM
TGI (MDA-MB-435): 25.7 µM
TGI (BT-549 breast): 15.6 µM
TGI (TK-10 renal): 37.1 µM
TGI (U251 CNS): 28.1 µM
TGI (SK-MEL-5 melanoma): 30.7 µM
TGI (DU-145 prostate): > 100 µM
TGI (MCF7 breast): 25.8 µM
TGI (A549 NSCLC): 17 µM
TGI (NCI-H460 lung): 17.5 µM
TGI (UO-31 renal): 11.7 µM
TGI (K-562 leukemia): 11.7 µM
TGI (KM12 colon): 17 µM
TGI (SK-OV-3 ovarian): 43.7 µM
TGI (MOLT-4 leukemia): > 100 µM
TGI (NCI-H522 lung): 9.14 µM
TGI (SNB-75 CNS): 31.3 µM
TGI (HCT-15 colon): 5.02 µM
TGI (SW-620 colon): 12.7 µM
TGI (M14 melanoma): 27.3 µM
TGI (A498 renal): 35.8 µM
TGI (HCT-116 colon): 3.81 µM
TGI (HOP-62 NSCLC): 19.5 µM
TGI (COLO 205 colon): 17.2 µM
TGI (HOP-92 NSCLC): 24.5 µM
TGI (PC-3 prostate): 25.4 µM
TGI (SNB-19 CNS): 43.4 µM
TGI (SF-539 CNS): 26.6 µM
